1 compound from patent US20240009174A1, “METHODS FOR DISRUPTING MITOCHONDRIAL UNFOLDED PROTEIN RESPONSE” (Health Research, Inc., priority 2020, published 2024) can be followed below.

Assay type in all cases: cell-based
The test system of one data set is RWPE-1 cells. The data set is described as follows: Apoptosis in non-carcinoma RWPE-1 cells (Annexin V/PI labeling). The note with it: 24 h and 48 h, doses 5, 10, 20. The procedure:
FIG. 9. Structure of DCEM1 is shown in (A). (B) Human prostate epithelial non carcinoma RWPE-1 cells were treated with DCEM1 at indicated doses for 24 h and 48 h and apoptotic cells were quantified by Annexin V/PI labeling as described in material and methods. In (B), the bars in each series from left to right are DMSO, 5, 10, and 20.
Identification of novel inhibitor of HSP60-ClpP interaction that disrupts UPR^mt function and induces PCa cell death. Having shown that two arms of UPR^mt, HSP60 chaperonin and ClpP protease interact and play critical role in PCa cell survival, an in silico analysis was performed and a small molecule library (developed by Enamine Ltd) was screened to identify drugs targeting the apical domain of HSP60 critical for its interaction with ClpP. 9 compounds (A-I) were identified and screened for their cell death inducing potential in PCa cells (data not shown). […] Colony forming ability of PCa cells was inhibited by DCEM1 treatment (data not shown).

A further data set deals with T1, HSP60-ClpP interaction (Homo sapiens, UniProt P10809).
T1 construct: endogenous in cells
The data set is described as follows: HSP60-ClpP co-immunoprecipitation assay in PCa cells. The note with it: LNCaP and PC-3 cells, 24 hours. The protocol: FIG. 6. Pharmacological inhibition of HSP60-ClpP interaction induces UPR^mt and PCa cell death. (A) Docking of DCEM1 into apical domain of HSP60. (B) LNCaP and PC-3 cells were treated with DCEM1 for 24 hours and HSP60-ClpP interaction was analyzed by co-immunoprecipitation assay. (C) LNCaP and PC-3 cells were treated with DCEM1 for 24 hours and mitoROS levels were analyzed by flow cytometry using mitoSOX dye. (D) LNCaP and PC-3 cells were treated with DCEM1 for 24 hours and poly-Ub protein levels were analyzed by western blotting. (E) LNCaP and PC-3 cells were treated with DCEM1 for 24 and 48 hours and apoptotic cell populations were analyzed by flow cytometry using Annexin V FITC/PI method as explained in materials and methods. In (E) top panel, the bars in each series from left to right are control, 5, 10, and 20, and in (E) bottom panel, the bars in each series from left to right are DMSO, 5, 10, and 20. (F) LNCaP and PC-3 cells were treated with DCEM1 for 24 and 48 hours and lysates were prepared and analyzed for DEVDase activity using specific peptide substrate. […] (G) LNCaP and PC-3 cells were pre-treated with SKQ1 followed by DCEM1 treatment and analyzed for cell viability by MTT assay. (H) LNCaP and PC-3 cells were treated with either DCEM1 or H2O2 (200 μM) for 24 hours and total DNA were isolated and analyzed for mtDNA damage as described in materials and methods. […]

The next data set deals with LNCaP and PC-3 cells. Put plainly: DEVDase (caspase) activity in cell lysates. The note with it: 24 and 48 hours. The protocol: FIG. 6. Pharmacological inhibition of HSP60-ClpP interaction induces UPR^mt and PCa cell death. (A) Docking of DCEM1 into apical domain of HSP60. (B) LNCaP and PC-3 cells were treated with DCEM1 for 24 hours and HSP60-ClpP interaction was analyzed by co-immunoprecipitation assay. (C) LNCaP and PC-3 cells were treated with DCEM1 for 24 hours and mitoROS levels were analyzed by flow cytometry using mitoSOX dye. (D) LNCaP and PC-3 cells were treated with DCEM1 for 24 hours and poly-Ub protein levels were analyzed by western blotting. (E) LNCaP and PC-3 cells were treated with DCEM1 for 24 and 48 hours and apoptotic cell populations were analyzed by flow cytometry using Annexin V FITC/PI method as explained in materials and methods. […] (F) LNCaP and PC-3 cells were treated with DCEM1 for 24 and 48 hours and lysates were prepared and analyzed for DEVDase activity using specific peptide substrate. […] (G) LNCaP and PC-3 cells were pre-treated with SKQ1 followed by DCEM1 treatment and analyzed for cell viability by MTT assay. (H) LNCaP and PC-3 cells were treated with either DCEM1 or H2O2 (200 μM) for 24 hours and total DNA were isolated and analyzed for mtDNA damage as described in materials and methods.
FIG. 7. […] (C) ClpP protein was over-expressed in LNCaP and PC-3 cells followed by DCEM1 treatment and level of poly-ubiquitinated protein was analyzed by western blotting. […]

Data set [1] has as its system HSP60, HSP10, ClpP and LONP1. Put plainly: Expression of UPRmt components after DCEM1. The conditions noted are these: PCa cells.
Data set [2] has as its system mitochondrial chaperonin activity in PCa cells. The data set is described as follows: Mitochondrial Chaperonin Activity Assay (MiCAA). The note with it: 24 h. The protocol: FIG. 10. Mitochondrial Chaperonin Activity Assay (MiCAA). PCa cells were treated with either DCEM1 (A) or ETB or Mizoribine (B) for 24 h and mitochondrial (Mito) chaperonin activity was analyzed as described in material and methods. In another experiment, PCa cells were transfected with siRNA to target HSP60 mRNA and mitochondrial chaperonin activity was analyzed (C). In (A), the bars in each series from left to right are DMSO and DCEM1. In (B), the bars in each series from left to right are DMSO, ETB, and MZR. In (C), the bars in each series from left to right are siMock, siHSP60-1, and siHSP60-2.
Since HSP60 chaperonin system is crucial for maintaining mitochondrial homeostasis in normal cells, a novel method, Mitochondrial Chaperonin Activity Assay (MiCAA), was developed to analyze chaperonin activity in live cells using flow cytometry to evaluate whether DCEM1 modulates mitochondrial chaperonin activity.

T1 sequence (P10809 27-573): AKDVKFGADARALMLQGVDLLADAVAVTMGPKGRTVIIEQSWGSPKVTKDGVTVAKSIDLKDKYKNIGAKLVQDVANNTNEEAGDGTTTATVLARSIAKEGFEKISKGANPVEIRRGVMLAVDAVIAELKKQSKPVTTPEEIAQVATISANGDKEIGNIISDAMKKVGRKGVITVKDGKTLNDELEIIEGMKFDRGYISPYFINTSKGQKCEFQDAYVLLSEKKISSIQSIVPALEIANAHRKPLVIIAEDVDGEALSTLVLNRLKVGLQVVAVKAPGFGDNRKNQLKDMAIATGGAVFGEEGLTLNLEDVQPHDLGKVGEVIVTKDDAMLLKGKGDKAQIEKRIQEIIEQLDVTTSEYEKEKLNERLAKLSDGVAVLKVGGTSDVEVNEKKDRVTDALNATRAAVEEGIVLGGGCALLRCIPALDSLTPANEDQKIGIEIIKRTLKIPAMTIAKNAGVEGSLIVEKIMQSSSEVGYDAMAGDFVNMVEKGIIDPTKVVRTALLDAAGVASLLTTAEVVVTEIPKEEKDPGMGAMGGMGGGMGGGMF

For `CCOc1cc(CNCc2nc3ccccc3[nH]2)ccc1OCc1cccs1` [DCEM1], the “effect (cell death/apoptosis) on non-carcinoma prostate epithelial RWPE-1 cells” value in the data set on RWPE-1 cells is listed as “no effect”. For the same compound, the “HSP60-ClpP interaction by co-immunoprecipitation” value on HSP60-ClpP interaction is listed as “inhibited HSP60-ClpP interactions in a dose dependent manner”. Also, the “caspase (DEVDase) activity” value in the data set on LNCaP and PC-3 cells is listed as “robust caspase activity”. In data set [1], the “expression of UPRmt components HSP60, HSP10, ClpP and LONP1” value was “failed to alter”. In data set [2], the mitochondrial chaperonin activity result was “did not modulate”.
